Experimental data: paper PMC5312529 (BMC Cancer, 2017)
Read-outs that look alike come from different tables or passages of the source. Marks after values point to notes of the source that are not given here.

Columns and labels:
[1] = tested on: patients with advanced solid tumors; details: cited from earlier work
[2] = tested on: Stage II-IV locally advanced or metastatic pancreatic cancer; experiment: Phase II randomized trial: overall survival, PFS, response (RECIST v 1.1); format: in vivo, human
Description: Adult patients who had given informed consent had adequate hematological, liver, and renal functions; histological or cytological evidence of a diagnosis of Stage II or III adenocarcinoma of the pancreas not amenable to resection with curative intent or Stage IV disease; and an Eastern Cooperative Oncology Group performance status (ECOG PS) 0–2. Patients with previous radical surgery for pancreatic cancer were eligible after progression was documented.
(§1) Prior to enrollment, the study protocol, patient informed consent, and any other written study documentation were approved by an ethics committee. This trial was conducted in accordance with the Declaration of Helsinki and the Good Clinical Practice Guidelines of the International Conference on Harmonization. Phase II of this open-label, multicenter, randomized, 2-arm, Phase I/II trial was conducted in patients with locally advanced or metastatic pancreatic cancer. […] Patients continued on treatment until disease progression, unacceptable toxicity, or patient unwillingness to participate.
In addition to the Bayesian model, frequentist analysis of OS was also performed as a sensitivity analysis. The definition of secondary efficacy variables was consistent with standard conventions per RECIST (v 1.1).

[3] = tested on: patients with locally advanced or metastatic pancreatic cancer; experiment: Safety: treatment-emergent adverse events graded by CTCAE v 3.0; format: in vivo, human
Procedure: as §1
All patients who received at least one dose of study drug were evaluated for safety and toxicity. AE severity was graded using the Common Terminology Criteria for AEs (CTCAE) v 3.0.

[4] = tested on: carbohydrate antigen 19–9 (CA19-9); experiment: CA19-9 biomarker response; format: in vivo, human; details: patients with baseline CA19-9 > upper limit of normal
Description: Exploratory analyses included: change from baseline in tumor size and carbohydrate antigen 19–9 (CA19-9) levels, and changes in QTcF from electrocardiograms (ECG) obtained at baseline and after LY2603618 administration on days 2 and 16 during cycle one. […] A sample for CA–19–9 analysis was collected at the start of each cycle.

genomic DNA = experiment: Nucleoside analog DNA incorporation assay (gemcitabine/dFdC in genomic DNA); format: in vivo, human
[5] = tested on: patients with locally advanced or metastatic pancreatic cancer; experiment: Patient disposition and treatment exposure; format: in vivo
Procedure: as §1
The first patient was enrolled on 26 February 2009.

[6] = tested on: metastatic pancreatic adenocarcinoma; design: method as in PMID 21969517; details: MPACT; cited from earlier work
[7] = LY2603618 plasma pharmacokinetics, noncompartmental analysis; format: in vivo, human; details: for Cmax / AUC(0-inf) / AUC(0-t) / clearance / Vd / half-life: 230 mg; for Cmax: read-out: Cmax, Geometric Mean (CV%); for AUC(0-inf): read-out: AUC(0-∞), Geometric Mean (CV%); for AUC(0-t): read-out: AUC(0–24), Geometric Mean (CV%); for clearance: read-out: CL, Geometric Mean (CV%) (converted); for Vd: read-out: Vss, Geometric Mean (CV%); for half-life: read-out: t1/2, Geometric Mean (CV%) (converted)
Procedure: LY2603618 concentrations were quantified using a validated high-pressure liquid chromatography/mass spectrometry/mass spectrometry method. Whole blood samples were collected following the LY2603618 infusion on days 2 and 16 of cycle 1 before the start (<10 min) of infusion; immediately prior to the end of infusion (<5 min); and at 1, 3, and 24 h after the end of infusion. LY2603618 PK parameters were computed from the plasma concentration versus time data by standard noncompartmental analyses (Phoenix WinNonlin version 6.3, Pharsight, A Certara Company®; Princeton, NJ, USA).

[8] = tested on: Fridericia’s heart rate-corrected QT interval (QTcF); experiment: Exploratory QTcF assessment from electrocardiograms; format: in vivo, human; details: ECG at baseline and after LY2603618 on days 2 and 16 of cycle one
Description: Exploratory analyses included: change from baseline in tumor size and carbohydrate antigen 19–9 (CA19-9) levels, and changes in QTcF from electrocardiograms (ECG) obtained at baseline and after LY2603618 administration on days 2 and 16 during cycle one.

HT-29 xenograft models = tested on: HT-29 xenograft models; design: method as in data on file; details: nonclinical HT-29 xenograft models; ref data on file; cited from earlier work
[9] = tested on: patients with solid tumors; design: method as in PMID 27598338; details: in combination with gemcitabine; cited from earlier work
[10] = study drug-related TEAE, any grade
[11] = 230 mg LY2603618, Cycle 1 Day 2
[12] = 230 mg LY2603618, Cycle 1 Day 16
[13] = 230 mg LY2603618, days 2 and 16 of cycle 1
[14] = human, plasma, intravenous, 230 mg LY2603618, Cycle 1 Day 2
[15] = human, plasma, intravenous, 230 mg LY2603618, Cycle 1 Day 16

For NC(=O)Nc1cc(-c2cccc(F)c2)sc1C(=O)N[C@H]1CCCNC1 [AZD7762], the “Toxicity observed in Phase 1 study” value [1] is listed as “unpredictable cardiac toxicity was observed”.
In the case of Nc1ccn([C@@H]2O[C@H](CO)[C@@H](O)C2(F)F)c(=O)n1 [Gemcitabine, gemcitabine], the “Median overall survival (OS)” value ([2]; ITT population, frequentist analysis) is reported as 8.3 months, the “Best Overall Response: CR” value ([2]; in vivo) is reported as 0 n (%; 95% CI) and the “Best Overall Response: PR” value ([2]; in vivo) is reported as 3 (8.8%; 1.9–23.7) n (%; 95% CI). For the same compound, the “Best Overall Response: SD” value ([2]; in vivo) was 19 (55.9%; 37.9–72.8) n (%; 95% CI), the “Clinical Benefit Rate” value ([2]; in vivo) was 22 (64.7%; 46.5–80.3) n (%; 95% CI) and the Clinical benefit rate ([2]; in vivo) was 64.7%. For the same compound, the “Duration of response, Median (range)” value ([2]; in vivo) was 6.0 (3.7–6.8) mos, the “Percentage of patients with partial response (PR)” value ([2]; in vivo) was 8.8% and the “Events leading to discontinuation that were possibly related to treatment” value ([3]; among patients who discontinued due to AEs) was “four”. The “Study drug-related treatment-emergent AEs (TEAEs), patients” value ([3]; any grade) was 91.2%, the “Patients with ≥1 TEAE (study drug-related)” value ([3]; any grade, safety population) was 31 (91.2) n (%) and the “Patients who discontinued the study due to AEs” value ([3]; in vivo) was 6 n. For the same compound, the “Serious adverse events (SAE) related to study treatment, patients” value ([3]; in vivo) was 23.5%, the Alopecia [3, 10] was 4 (11.8) n (%) and the Anemia [3, 10] was 9 (26.5) n (%). The Asthenia [3, 10] was 5 (14.7) n (%), the Constipation [3, 10] was 3 (8.8) n (%) and the Decreased appetite [3, 10] was 3 (8.8) n (%). For the same compound, the Diarrhea [3, 10] was 3 (8.8) n (%), the Fatigue [3, 10] was 10 (29.4) n (%) and the Leukopenia [3, 10] was 5 (14.7) n (%). For the same compound, the Nausea [3, 10] was 8 (23.5) n (%), the Neutropenia [3, 10] was 9 (26.5) n (%) and the Oedema peripheral [3, 10] was 2 (5.9) n (%). For the same compound, the “Patients who experienced anemia” value [3, 10] was 26.5%, the Pyrexia [3, 10] was 5 (14.7) n (%) and the Stomatitis [3, 10] was 1 (2.9) n (%). The Thrombocytopenia [3, 10] was 14 (41.2) n (%), the Vomiting [3, 10] was 3 (8.8) n (%) and the Decreased hemoglobin ([3]; study drug-related, Grade 3) was 4 (11.8) n (%). The Decreased leukocytes ([3]; study drug-related, Grade 3) was 1 (2.9) n (%), the Decreased platelets ([3]; study drug-related, Grade 3) was 3 (8.8) n (%) and the Dehydration ([3]; study drug-related, Grade 3) was 2 (5.9) n (%). For the same compound, the Fatigue ([3]; study drug-related, Grade 3) was 3 (8.8) n (%), the Hyponatremia ([3]; study drug-related, Grade 3) was 2 (5.9) n (%) and the “Patients with ≥1 TEAE” value ([3]; study drug-related, Grade 3) was 19 (55.9) n (%). The Thrombotic microangiopathy ([3]; study drug-related, Grade 3) was 2 (5.9) n (%), the Decreased hemoglobin ([3]; study drug-related, Grade 4) was 0 n (%) and the Decreased leukocytes ([3]; study drug-related, Grade 4) was 1 (2.9) n (%). The Decreased platelets ([3]; study drug-related, Grade 4) was 1 (2.9) n (%), the Dehydration ([3]; study drug-related, Grade 4) was 0 n (%) and the Fatigue ([3]; study drug-related, Grade 4) was 0 n (%). For the same compound, the Hyponatremia ([3]; study drug-related, Grade 4) was 0 n (%), the “Patients with ≥1 TEAE” value ([3]; study drug-related, Grade 4) was 3 (8.8) n (%) and the Thrombotic microangiopathy ([3]; study drug-related, Grade 4) was 0 n (%). For the same compound, the “Patients with >50% reduction from baseline in CA19-9 levels” value [4] was 64%, the “dFdC levels incorporated into DNA over the treatment cycle” value (genomic DNA; following gemcitabine administration) was “declining to almost baseline by the end of each treatment cycle” and the “Study discontinuation due to death” value ([5]; ITT population) was 2.9%. For the same compound, the “Study discontinuation due to progressive disease” value ([5]; ITT population) was 61.8%, the “Study discontinuation due to AE” value ([5]; human, in vivo) was 17.6% and the “Median OS” value [6] was 6.7 months.
With Cc1cnc(NC(=O)Nc2cc(Br)c(C)cc2OC[C@@H]2CNCCO2)cn1 [LY2603618] the “Effect of the addition of LY2603618 on the safety profile of gemcitabine” value ([3]; in vivo) was “did not significantly change the safety profile of gemcitabine”, the “AUC(tlast-∞), Geometric Mean (CV%)” value [7, 11] was 14.3 (131) ^d % and the “Cav,24, Geometric Mean (CV%)” value [7, 11] was 966 (68) ^d ng/mL. The “AUC(tlast-∞), Geometric Mean (CV%)” value [7, 12] was 12.0 (152) ^e %, the “Cav,24, Geometric Mean (CV%)” value [7, 12] was 987 (60) ^e ng/mL and the “tmax, Median (range)” value [7, 12] was 1.00 (0.88–1.83) h. For the same compound, the “Individual PK profiles above the target for AUC(0-∞) (≥21,000 ng hr/mL)” value [7, 13] was 73%, the “Individual PK profiles above the target for Cmax (≥2000 ng/mL)” value [7, 13] was 87% and the Cmax ([7]; human, plasma, intravenous, 230 mg LY2603618 1-h infusion ~24 h after gemcitabine, Cycle 1 Day 2) was 3170 ng/mL. It also gave an AUC(0-inf) [7, 14] of 29400 ng·h/mL, an AUC(0-t) [7, 14] of 23200 ng·h/mL and a clearance [7, 14] of 130 mL/min. For the same compound, the Vd [7, 14] was 104 L, the half-life [7, 14] was 9.67 h and the AUC(0-inf) [7, 15] was 29100 ng·h/mL. It also gave an AUC(0-t) [7, 15] of 23700 ng·h/mL, a clearance [7, 15] of 131 mL/min and a Cmax [7, 15] of 3410 ng/mL. It also gave a Vd [7, 15] of 95.1 L, a half-life [7, 15] of 8.86 h and a Tmax ([7]; human, plasma, intravenous, 230 mg LY2603618, Cycle 1 Day 2, read-out: tmax, Median (range)) of 1 h. The “Patients with change in QTcF from baseline >60 msec” value [8] was “no patients”, the “Patients with change in QTcF from baseline between 30 and 60 msec” value [8] was “Five” and the “Trends in ECG parameter changes (time-point QTcF assessment)” value [8] was “no clinically significant trends”. The “Relation of increases in dFdC incorporation into DNA to LY2603618 dose” value (genomic DNA; in vivo) was “did not correspond to increasing doses of LY2603618”, the “Plasma systemic exposure target AUC(0-∞) that correlates with maximal pharmacodynamic effect” value (HT-29 xenograft models) was ≥ 21,000 ng hr/mL and the “Plasma systemic exposure target Cmax that correlates with maximal pharmacodynamic effect” value (HT-29 xenograft models) was at least 2000 ng/mL. For the same compound, the “Recommended Phase II dose” value [9] was 230 mg.
